Assays:
[1] = tested on: Hepatotoxicity;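 as to HepSE cholecystitis: Cholecystitis-related hepatic side effect score drawn from the DILIps (drug-induced liver injury prediction) training data set; call rule not given here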;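 as to HepSE cholelithiasis: hepatic side effect score for cholelithiasis, drawn from the DILIps training data for predicting drug-induced liver injury; call rule not given here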;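 as to HepSE cirrhosis: cirrhosis hepatic side effect score taken from the DILIps (drug-induced liver injury prediction) training set; call rule not given here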; as to HepSE hepatic failure: call rule not given here;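 as to HepSE hepatomegaly: hepatic side effect score for hepatomegaly, taken from the training set of the DILIps drug-induced liver injury prediction system; call rule not given here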; as to HepSE liver disease: call rule not given here;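 as to HepSE liver function tests abnormal: hepatic side effect score taken from the DILIps (drug-induced liver injury prediction system) training data, here covering abnormal liver function test findings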
[2] = tested on: Hepatotoxicity; remark: listed apart in the source;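 as to HepSE cholecystitis: Cholecystitis-related hepatic side effect score drawn from the DILIps (drug-induced liver injury prediction) training data set; call rule not given here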;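 as to HepSE cholelithiasis: hepatic side effect score for cholelithiasis, drawn from the DILIps training data for predicting drug-induced liver injury; call rule not given here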;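 as to HepSE cirrhosis: cirrhosis hepatic side effect score taken from the DILIps (drug-induced liver injury prediction) training set; call rule not given here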; as to HepSE hepatic failure: call rule not given here;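 as to HepSE hepatomegaly: hepatic side effect score for hepatomegaly, taken from the training set of the DILIps drug-induced liver injury prediction system; call rule not given here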; as to HepSE liver disease: call rule not given here;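 as to HepSE liver function tests abnormal: hepatic side effect score taken from the DILIps (drug-induced liver injury prediction system) training data, here covering abnormal liver function test findings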
[3] = tested on: Hepatotoxicity; remark: listed apart in the source;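 as to HepSE cholecystitis: Cholecystitis-related hepatic side effect score drawn from the DILIps (drug-induced liver injury prediction) training data set; call rule not given here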;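 as to HepSE cholelithiasis: hepatic side effect score for cholelithiasis, drawn from the DILIps training data for predicting drug-induced liver injury; call rule not given here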;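 as to HepSE cirrhosis: cirrhosis hepatic side effect score taken from the DILIps (drug-induced liver injury prediction) training set; call rule not given here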; as to HepSE hepatic failure: call rule not given here;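 as to HepSE hepatomegaly: hepatic side effect score for hepatomegaly, taken from the training set of the DILIps drug-induced liver injury prediction system; call rule not given here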; as to HepSE liver disease: call rule not given here;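 as to HepSE liver function tests abnormal: hepatic side effect score taken from the DILIps (drug-induced liver injury prediction system) training data, here covering abnormal liver function test findings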
[4] = tested on: Hepatotoxicity; remark: listed apart in the source;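 as to HepSE cholelithiasis: hepatic side effect score for cholelithiasis, drawn from the DILIps training data for predicting drug-induced liver injury; call rule not given here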;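 as to HepSE cirrhosis: cirrhosis hepatic side effect score taken from the DILIps (drug-induced liver injury prediction) training set; call rule not given here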; as to HepSE hepatic failure: call rule not given here;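 as to HepSE hepatomegaly: hepatic side effect score for hepatomegaly, taken from the training set of the DILIps drug-induced liver injury prediction system; call rule not given here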; as to HepSE liver disease: call rule not given here;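 as to HepSE liver function tests abnormal: hepatic side effect score taken from the DILIps (drug-induced liver injury prediction system) training data, here covering abnormal liver function test findings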
[5] = tested on: Hepatotoxicity; remark: listed apart in the source; as to HepSE hepatic failure: call rule not given here; as to HepSE liver disease: call rule not given here
[6] = tested on: Hepatotoxicity; remark: listed apart in the source; as to HepSE hepatic failure: call rule not given here; as to HepSE liver disease: call rule not given here
[7] = tested on: Hepatotoxicity; remark: listed apart in the source
[8] = tested on: Hepatotoxicity; remark: listed apart in the source
[9] = tested on: Hepatotoxicity; remark: listed apart in the source
[10] = tested on: Hepatotoxicity; remark: listed apart in the source
[11] = tested on: Hepatotoxicity; remark: listed apart in the source
[12] = tested on: Hepatotoxicity; remark: listed apart in the source
[13] = tested on: Hepatotoxicity; remark: listed apart in the source
[14] = tested on: Hepatotoxicity; remark: listed apart in the source
[15] = tested on: Hepatotoxicity; remark: listed apart in the source
[16] = tested on: Hepatotoxicity; remark: listed apart in the source

Compound	DILI positive/negative [1]	DILI positive/negative [4]	other results
CO[C@@H]1O[C@H](CO)[C@H](O)[C@H](O[C@@H]2O[C@@H](C(=O)O)[C@@H](OC)[C@H](O)[C@H]2O)[C@H]1NC(C)=O	1	–	–
CCO[C@@H]1OC(=O)C[C@@H]1NC(=O)[C@@H]1CCCN2C(=O)CC[C@H](NC(=O)c3nccc4ccccc34)C(=O)N12	1	–	–
CC(N)C(=O)OC(C)(C)Cc1ccc(Cl)cc1 (stereo not given) [ALAPROCLATE]	1	–	–
C[C@H](N)C(=O)N[C@@H](C)C(=O)N[C@H]1[C@@H]2CN(c3nc4c(cc3F)c(=O)c(C(=O)O)cn4-c3ccc(F)cc3F)C[C@@H]21 [ALATROFLOXACIN]	1	–	–
C=CCOc1ccc(CC(=O)O)cc1Cl [ALCLOFENAC]	–	–	DILI positive/negative ([1]; Liver): 1
O=C(O)CCCCCCNC1c2ccccc2CCc2ccccc21 [AMINEPTINE]	1	–	–
CCCCN1C(=O)[C@@H]([C@H](O)C2CCCCC2)NC(=O)C12CCN(Cc1ccc(Oc3ccc(C(=O)O)cc3)cc1)CC2 [APLAVIROC]	1	–	–
O=C(O)COc1nn(Cc2ccccc2)c2ccccc12 [BENDAZAC]	–	–	DILI positive/negative ([1]; Liver): 1
CCc1oc2ccccc2c1C(=O)c1ccc(O)cc1 [BENZARONE]	1	–	–
CCc1oc2ccccc2c1C(=O)c1cc(I)c(O)c(I)c1 [BENZIODARONE]	1	–	–
CCCCNc1ccc(C(=O)OCCOCCOCCOCCOCCOCCOCCOCCOCCOC)cc1 [BENZONATATE]	0	–	–
C[C@@H](Cc1ccccc1)N(C)Cc1ccccc1 [BENZPHETAMINE]	0	–	–
CN1C(=O)CCS(=O)(=O)C1c1ccc(Cl)cc1 (stereo not given) [CHLORMEZANONE]	1	–	–
Nc1nc(Cl)nc2c1ncn2[C@H]1C[C@H](O)[C@@H](CO)O1 [CLADRIBINE]	–	0	HepSE_liver disease [2]: 0; HepSE_liver function tests abnormal [3]: 0; HepSE_hepatomegaly [5]: 0; HepSE_cholelithiasis [6]: 0; HepSE_liver fatty [7]: 0; HepSE_hepatic failure [8]: 0; HepSE_cirrhosis [9]: 0; HepSE_cholecystitis [10]: 0; HepSE_bilirubinemia [11]: 0; HepSE_Combined Scores [12]: 0; HepSE_elevated liver function tests [13]: 0; HepSE_hepatic necrosis [14]: 0; HepSE_hepatitis [15]: 0; HepSE_jaundice [16]: 0
CN(C)CCCC1c2ccccc2Nc2ccc(Cl)cc21 (stereo not given) [CLOMACRAN]	1	–	–
COc1ccc2c(C(=O)c3ccc(Cl)cc3)c(C)n(CC(=O)O)c2c1 [CLOMETACIN]	1	–	–
CCN(CC)CCOc1ccc(C(=C(Cl)c2ccccc2)c2ccccc2)cc1 [CLOMIPHENE]	–	1	HepSE_liver disease [2]: 0; HepSE_liver function tests abnormal [3]: 0; HepSE_hepatomegaly [5]: 0; HepSE_cholelithiasis [6]: 0; HepSE_liver fatty [7]: 0; HepSE_hepatic failure [8]: 0; HepSE_cirrhosis [9]: 0; HepSE_cholecystitis [10]: 0; HepSE_bilirubinemia [11]: 0; HepSE_Combined Scores [12]: 1; HepSE_elevated liver function tests [13]: 0; HepSE_hepatic necrosis [14]: 0; HepSE_hepatitis [15]: 1; HepSE_jaundice [16]: 0
CC(=O)Oc1ccc(C(=C2CCCCC2)c2ccc(OC(C)=O)cc2)cc1 [CYCLOFENIL]	1	–	–
CN1c2c(oc(=O)n(-c3ccccn3)c2=O)-c2ccccc2S1(=O)=O [DROXICAM]	1	–	–
NC(N)=Nc1nc(CSCCN/C=N/S(=O)(=O)c2ccc(Br)cc2)cs1 [EBROTIDINE]	1	–	–
CC[N+](C)(C)c1cccc(O)c1.[Br-] [EDROPHONIUM BROMIDE]	0	–	–
CC1=NN(c2ccc(C)c(C)c2)C(=O)/C1=N\Nc1cccc(-c2cccc(C(=O)O)c2)c1O [ELTROMBOPAG]	–	–	DILI positive/negative ([1]; Liver): 1
O=C(c1cc(O)c(O)c(O)c1)c1ccc(O)c(O)c1O [EXIFONE]	1	–	–
CN1CCC(Nc2ncc3ncnc(Nc4ccc(F)c(Cl)c4)c3n2)CC1 [FALNIDAMOL]	–	–	DILI positive/negative ([1]; Liver): 1

Compound	DILI positive/negative [1]	DILI positive/negative [4]	other results
O=C(O)Cc1csc(-c2ccc(Cl)cc2)n1 [FENCLOZIC ACID]	1	–	–
COc1cccc2c1[C@@H]1CN(CCCCn3c(=O)[nH]c4c(sc5ncc(-c6ccccc6)nc54)c3=O)C[C@@H]1CO2 [FIDUXOSIN]	1	–	–
CC(C)Nc1ncccn1 [ISAXONINE]	1	–	–
CS(=O)(=O)CCNCc1ccc(-c2ccc3ncnc(Nc4ccc(OCc5cccc(F)c5)c(Cl)c4)c3c2)o1 [LAPATINIB]	1	–	–
Cc1ccc(Nc2c(F)cccc2Cl)c(CC(=O)O)c1 [LUMIRACOXIB]	1	–	–
Cc1nnc(C(C)C)n1[C@@H]1C[C@H]2CC[C@@H](C1)N2CC[C@H](NC(=O)C1CCC(F)(F)CC1)c1ccccc1 [MARAVIROC]	1	–	–
CC(NN)c1ccccc1 (stereo not given) [MEBANAZINE]	1	–	–
CN1CCCC(CN2c3ccccc3Sc3ccccc32)C1 (stereo not given) [MEPAZINE]	1	–	–
NCCO [MONOETHANOLAMINE]	0	–	–
O=C(CCNNC(=O)c1ccncc1)NCc1ccccc1 [NIALAMIDE]	1	–	–
CN(C)Cc1ccc(CSCCN/C(=C\[N+](=O)[O-])NCc2ccc3c(c2)OCO3)o1 [NIPEROTIDINE]	–	–	DILI positive/negative ([1]; Liver): 1
Cc1nc([N+](=O)[O-])cn1-c1ccc([N+](=O)[O-])cc1 [NITREFAZOLE]	1	–	–
O=C1Nc2ccccc2C1(c1ccc(O)cc1)c1ccc(O)cc1 [OXYPHENISATINE]	1	–	–
CONC(=N)c1ccc(-c2ccc(-c3ccc(C(=N)NOC)cc3)o2)cc1 [PAFURAMIDINE]	1	–	–
Cl.Nc1ccc(/N=N/c2ccccc2)c(N)n1 [PHENAZOPYRIDINE HYDROCHLORIDE]	–	1	–
C[C@H]1[C@H](c2ccccc2)OCCN1C [PHENDIMETRAZINE]	0	–	–
c1ccc2c(c1)Nc1ccccc1S2 [PHENOTHIAZINE]	–	1	–
CC(COc1ccccc1)NN (stereo not given) [PHENOXYPROPAZINE]	1	–	–
CC(N)C(O)c1ccccc1.Cl (stereo not given) [PHENYLPROPANOLAMINE HYDROCHLORIDE]	–	0	–
NC(=O)C1CCN(CCCN2c3ccccc3Sc3ccc(Cl)cc32)CC1 [PIPAMAZINE]	1	–	–
CC(C)(Sc1cc(C(C)(C)C)c(O)c(C(C)(C)C)c1)Sc1cc(C(C)(C)C)c(O)c(C(C)(C)C)c1 [PROBUCOL]	–	0	–
CN[C@@H](C)[C@@H](O)c1ccccc1.Cl [PSEUDOEPHEDRINE HYDROCHLORIDE]	–	0	–
CCO[C@@H](Cc1ccc(OCCN2c3ccccc3Oc3ccccc32)cc1)C(=O)O [RAGAGLITAZAR]	–	0	–
Nc1ccc(S(=O)(=O)NC(=O)c2ccccc2)cc1 [SULFABENZAMIDE]	–	0	–

Compound	DILI positive/negative [1]	DILI positive/negative [4]	other results
NC(=O)NS(=O)(=O)c1ccc(N)cc1 [SULFACARBAMIDE]	1	–	–
Nc1ccc(S(=O)(=O)Nc2nccs2)cc1 [SULFATHIAZOLE]	–	–	DILI positive/negative ([1]; Liver): 1
CCCCCCCCNC(C)C(O)c1ccc(SC(C)C)cc1 (stereo not given) [SULOCTIDIL]	1	–	–
CC1CN(c2cc3c(cc2F)c(=O)c(C(=O)O)cn3-c2ccc(F)cc2F)CCN1 (stereo not given) [TEMAFLOXACIN]	–	1	–
CCC1(c2ccccc2)C(=O)NC(=O)NC1=O.CCCCCOC(CN1C(=O)N(CC(COCCCC)OC(N)=O)C(=O)C(CC)(c2ccccc2)C1=O)OC(N)=O.CCCCOCC(CN1C(=O)NC(=O)C(CC)(c2ccccc2)C1=O)OC(N)=O (stereo not given) [TETRABAMATE]	1	–	–
CCCCNc1ccc(C(=O)OCCN(C)C)cc1.Cl [TETRACAINE HYDROCHLORIDE]	–	0	–
CN1c2ccccc2C(NCCCCCCC(=O)O)c2ccc(Cl)cc2S1(=O)=O (stereo not given) [TIANEPTINE]	–	1	–
Cc1cc(Br)c(O)c2ncccc12 [TILBROQUINOL]	1	–	–
COc1ccc2c(C(=S)N(C)CC(=O)O)cccc2c1C(F)(F)F [TOLRESTAT]	1	–	–
CC(=O)Oc1ccc(C2(c3ccc(OC(C)=O)cc3)C(=O)N(C(C)=O)c3ccccc32)cc1 [TRIACETYLDIPHENOLISATIN]	1	–	–
CN1C(=O)OC(C)(C)C1=O [TRIMETHADIONE]	–	1	–
COc1cc(C(=O)NCc2ccc(OCCN(C)C)cc2)cc(OC)c1OC.Cl [TRIMETHOBENZAMIDE HYDROCHLORIDE]	–	1	–
CN(C)CCN(Cc1ccccc1)c1ccccn1.Cl [TRIPELENNAMINE HYDROCHLORIDE]	–	1	–
CO[C@H]1C[C@H](O[C@H]2[C@H](C)[C@@H](O[C@@H]3O[C@H](C)C[C@H](N(C)C)[C@H]3OC(C)=O)[C@@H](C)C[C@@]3(CO3)C(=O)[C@H](C)[C@@H](OC(C)=O)[C@@H](C)[C@@H](C)OC(=O)[C@@H]2C)O[C@@H](C)[C@@H]1OC(C)=O [TROLEANDOMYCIN]	–	1	–
Oc1ncc(N(CCCl)CCCl)c(O)n1 [URACIL MUSTARD]	–	–	DILI positive/negative ([4]; Liver): 1
Nc1ncnc2c1ncn2[C@@H]1O[C@H](CO)[C@@H](O)[C@@H]1O [VIDARABINE]	–	0	–
CC[C@]1(O)C[C@@H]2CN(CCc3c([nH]c4ccccc34)[C@@](C(=O)OC)(c3cc4c(cc3OC)N(C)[C@H]3[C@@](O)(C(=O)OC)[C@H](OC(C)=O)[C@]5(CC)C=CCN6CC[C@]43[C@@H]65)C2)C1.O=S(=O)(O)O [VINBLASTINE SULFATE]	–	0	–
CCOC(Nc1ccc(C(=O)O)cc1)C(=O)c1ccc(-c2ccccc2)cc1 (stereo not given) [XENAZOIC ACID]	1	–	–
Cc1cc(CC(=O)O)n(C)c1C(=O)c1ccc(Cl)cc1 [ZOMEPIRAC]	–	0	–
AUROTHIOGLUCOSE	–	1	–
BISMUTH SUBSALICYLATE	–	0	–
FERROUS SULFATE	–	0	–
GALLIUM NITRATE HYDRATE	–	0	–
LACTOSE, ANHYDROUS	–	0	–
